Results as given in patent publication EP0563127B1, “IMPROVED TREATMENT METHOD FOR CANCER” (priority 1990, dated 1992).
Read-outs that look alike come from different tables or passages of the source.

Assays:
B16 melanoma cells = test: In vivo augmentation of BCNU anti-tumor activity in a B16 melanoma lung metastasis model; set-up: species or system C57Bl mice; conditions: for (% control) of lung metastases / Numbers of lung metastases / Median Survival: intraperitoneal day 1; for (% control) of lung metastases / Numbers of lung metastases: lungs at day 14; for Numbers of lung metastases: saline 241; for Median Survival: saline 19; for Size of lung metastases: Macro means visually determined, Micro means microscopically only
Protocol: 5 x 10⁴ B16 melanoma cells were injected intravenously into the tail vein of C57Bl mice at day 0. The mice were treated with either saline, 32mg/kg of DPPE, 1mg of BCNU or a combination of 32mg/kg of DPPE and 1mg of BCNU, by intraperitoneal injection on day 1. The DPPE was administered 60 minutes before the BCNU.
In each group, six of the twelve animals were sacrificed at day 14 and lungs were removed for determination of metastasis. The remaining six animals were followed to death. The numbers and size of the lung metastases were determined by visual or microscope count.

[1] = administered five hours or more prior to the chemotherapeutic agent; cited from earlier work
bone marrow progenitors = conditions: for R.C.S. / R.C.S. (Relative Cell Survival): saline = 1.0; for CFU-C/10⁴ cells (No. of bone marrow colonies) / R.C.S. (Relative Cell Survival): 5FU lethal dose (7.5mg) alone
Protocol: The DPPE and saline were administered 90 minutes prior to the 5FU. Bone marrow cell counts were made at 24 hours and 48 hours post administration.
Experiments paralleling those described above with 5FU were carried out employing a lethal dose of adriamycin (20mg/kg).

C-3 fibrosarcoma cells = test: In vivo augmentation of adriamycin anti-tumor activity in a murine sarcoma model; set-up: species or system C3H mice; conditions: intraperitoneally day 1, followed 60 days
Protocol: C-3 fibrosarcoma cells (3 x 10⁵) were injected into the left gluteal region of C3H mice on day 0. On day 1, the mice were provided with treatment by a combination of DPPE and adriamycin, administered intraperitoneally. The DPPE was administered 60 minutes prior to administration of the adriamycin. Mice also were administered with saline, DPPE alone and adriamycin alone.
Animals in the experiments (n=12) were followed for 60 days. At the end of the experimental period, those animals free of palpable tumors were considered cured.

B16f10 melanoma cells = test: In vivo augmentation of daunorubicin anti-tumor activity in a B16 melanoma lung metastasis model; set-up: species or system mice; conditions: Daunorubicin 12.5 mg/kg alone, 24 hours after cells
Protocol: The procedure of Example III was repeated employing daunorubicin in place of BCNV. Groups of six mice were injected with B16f10 melanoma cells and 24 hours later received saline, 4 mg/kg of DPPE alone, a non-lethal dose of daunorubicin alone (12.5 mg/kg) or DPPE (4, 25 or 50 mg/kg) one hour prior to daunorubicin (12.5 mg/kg). All animals were followed to death or for 60-days post injection, and sacrificed for lung metastases.

DBA/2 mice = test: In vivo host cytoprotection from a lethal dose of adriamycin; conditions: DPPE 2 mg/kg 1 hour (n=12) or 15 minutes (n=6) prior to 15 mg/kg of adriamycin, after 30 days
Protocol: Saline or DPPE (2 mg/kg) were administered to DBA/2 mice 1 hour (n=12) or 15 minutes (n=6) prior to administration of 15 mg/kg of adriamycin. The number of survivors after 30 days was determined.

[2] = tested on: Spleen cells from BALB/C mice; test: Thymidine incorporation into DNA of Concanavalin A-stimulated lymphocytes; type: cell-based
Protocol: Spleen cells from BALB/C mice were stimulated with Concanavalin A (5 µg/ml) for thymidine incorporation. The cells then were treated with varying does of DPPE and the level of thymidine incorporated was determined. The results were plotted graphically and appear as Figure 1.
The experiment was repeated using 2.5 µg/ml of Concanavalin A in place of 5 µg/ml and 2% fetal calf serum in place of 10%. The results obtained are illustrated in Figure 2.

[3] = tested on: patients with advanced cancer; test: Clinical study in patients with advanced cancer
Protocol: A clinical study was carried out with 14 patients with advanced cancer. • (a) DPPE alone was administered to patients to determine a safe dose range in humans.

ulcer formation = conditions: in the presence of noxious agents, such as alcohol and cysteamine; see US-A-4,829,068; cited from earlier work
[4] = tested on: virally-infected non-senescing transformed spleen-derived lymphocytes (S-10); test: Thymidine incorporation and cytotoxicity in virally-infected transformed lymphocytes; type: cell-based, BALB/C origin
Protocol: The experiment of Example VI was repeated employing virally-infected non-senescing transformed spleen-derived lymphocytes (S-10) also of BALB/C origin with 0.25 nM of ³H-thymidine added. The results were plotted graphically and appear as Figures 3 and 4 respectively. As may be seen therein, in contrast to Figures 1 and 2, 25 µM of DPPE caused approximately 50% cytotoxicity to the virally-infected cells. When adjusted for cell number, thymidine incorporation increased at cytotoxic concentrations of DPPE (10 to 25 µM).

certain B cells = test: Interleukin-2 stimulated antibody formation in B cells; type: cell-based
Text: As with bone marrow cells, the treatment of normal proliferating lymphocytes (immune cells), according to the invention, results in a dose-dependent blocking of DNA synthesis and a shut-down of these cells without causing cytotoxicity. The antagonist has an effect on both T-lymphocytes and B-lymphocytes in the immune system. […] DPPE also blocks the stimulation of antibody formation by the mediator interleukin-2 in certain B cells, resulting is a decrease in antibody formation.

[5] = tested on: human breast cancer cell (MCF-7); test: Thymidine incorporation and cytotoxicity in breast cancer cells; type: cell-based; conditions: 0.25 nM of thymidine, Figure 5
Protocol: The experiment was again repeated using human breast cancer cell (MCF-7) with 0.25 nM of thymidine added. The results were plotted graphically and appear as Figure 5.

prostaglandin (PG)I₂ = test: Prostaglandin level in the gut after DPPE treatment; type: in vivo
Text: In addition, the antagonism results in an increase in the levels of prostaglandins (natural substances which are known to protect tissues from various injurious agents) in the tissue. For example, DPPE treatment results in an increase by 500% in prostaglandin (PG)I₂, a protective prostaglandin, in the gut.

malignant cells = conditions: as described in US-A- No. 4,803,227; cited from earlier work
[6] = Adriamycin lethal dose (20mg/kg) alone, 24h
[7] = Adriamycin lethal dose (20mg/kg) alone, 48h
[8] = 25 µM DPPE, Concanavalin A 5 µg/ml, 10% fetal calf serum, Figure 1
[9] = DPPE 0.2 mg/kg daily, patients treated with Adriamycin (60 mg/m²)

O=NN(CCCl)C(=O)NCCCl [BCNU, reference compound]
(% control) of lung metastases (B16 melanoma cells; BCNU 1mg alone): 60% | Numbers of lung metastases (B16 melanoma cells; BCNU 1mg alone): 144 | Median Survival (B16 melanoma cells; BCNU 1mg alone): 24 days | Size of lung metastases (B16 melanoma cells; BCNU 1mg alone): All Macro

N[C@H](CO)Cc1c[nH]cn1 [L-histidinol]
effective doses [1]: approximately 1000 mg/kg of tissue

COc1cccc2c1C(=O)c1c(O)c3c(c(O)c1C2=O)C[C@@](O)(C(=O)CO)C[C@@H]3O[C@H]1C[C@H](N)[C@H](O)[C@H](C)O1 [Adriamycin, doxorubicin]
CFU-C/10⁴ cells (bone marrow progenitors; [6]): 1.8 CFU-C/10⁴ cells | R.C.S. (bone marrow progenitors; [6]): 0.04 | CFU-C/10⁴ cells (bone marrow progenitors; [7]): 0.65 CFU-C/10⁴ cells | R.C.S. (bone marrow progenitors; [7]): 0.006 | Number of Mice Tumor-Free (n=12) (C-3 fibrosarcoma cells; Adriamycin 2mg/kg alone): 0

COc1cccc2c1C(=O)c1c(O)c3c(c(O)c1C2=O)C[C@@](O)(C(C)=O)C[C@@H]3O[C@H]1C[C@H](N)[C@H](O)[C@H](C)O1 [Daunorubicin, daunorubicin]
No. Cures (n=6) (B16f10 melanoma cells; followed 60 days): 0 | Median Survival (B16f10 melanoma cells; followed to death or 60 days, saline 17): 25 days

CCN(CC)CCOc1ccc(Cc2ccccc2)cc1 [DPPE, N,N-diethyl-2-[4-(phenylmethyl)-phenoxy]ethanamine]
Number of Survivors (DBA/2 mice; saline group 4/12): 13/18 | Number of Survivors (percent) (DBA/2 mice; saline group 33%): 72% | cell survival [2, 8]: does not adversely affect | thymidine incorporation into DNA [2, 8]: completely blocks | concentrations of DPPE which inhibited DNA synthesis ([2]; Concanavalin A 2.5 µg/ml, 2% fetal calf serum, Figure 2): 5 µm | cytotoxicity ([2]; at 5 µm DPPE, Concanavalin A 2.5 µg/ml, 2% fetal calf serum, Figure 2): no significant cytotoxicity | proliferation of T-lymphocytes ([2]; in the presence of Concanavalin A): completely antagonize | mouth ulceration ([3]; 72-hour infusion of low dose DPPE, one patient): prevented | acute and delayed gastrointestinal side effects of Adriamycin ([3]; DPPE 0.2 mg/kg daily as a 72-hour infusion, Adriamycin 60 mg/m², four patients, two treatments each): block completely | anti-emetic effect ([3]; DPPE 0.2 mg/kg daily, 24-hour infusion, first 24 to 48 hours following Adriamycin, delayed nausea, vomiting and/or anorexia at 72 or 96 hours in many patients): effective anti-emetic therapy | amelioration of nausea, vomiting, anorexia and stomatitis [3, 9]: over 90% | patients in whom nausea, vomiting, anorexia and stomatitis were prevented or ameliorated [3, 9]: 6/6 | toxicity ([3]; DPPE alone, 6 mg/kg administered IV over 2 hours): significant toxicity was absent | highest non-toxic dosage ([3]; DPPE alone, given intravenously over a one-hour period): 4 mg/kg | effect on platelets, hemoglobin or biochemistry ([3]; human, in vivo): No significant effect | CNS toxicity ([3]; human, in vivo, 6 mg/kg): dose limiting | drop in body core temperature ([3]; human, in vivo, 6 mg/kg): 1-2 °C | threshold for CNS toxicity ([3]; human, in vivo, 1 h): 240 mg/M² | changes in biochemistries or blood counts ([3]; human, in vivo, iv, 0.2 mg/kg): not to cause any significant changes | clinical side effects ([3]; human, in vivo, iv, 0.2 mg/kg): entirely without clinical side effects | antiemetic effect against Adriamycin ([3]; single iv doses of DPPE (1, 2, 4 mg/kg) given over 1 hour): significantly antiemetic | (% control) of lung metastases (B16 melanoma cells; DPPE 32mg/kg alone): 91% | Numbers of lung metastases (B16 melanoma cells; DPPE 32mg/kg alone): 219 | Median Survival (B16 melanoma cells; DPPE 32mg/kg alone): 21 days | Size of lung metastases (B16 melanoma cells; DPPE 32mg/kg alone): All Macro | ulcer formation (ulcer formation): completely block | cytotoxicity to the virally-infected cells ([4]; 25 µM of DPPE, S-10 cells, Figures 3 and 4): approximately 50% | thymidine incorporation adjusted for cell number ([4]; at cytotoxic concentrations of DPPE (10 to 25 µM), 0.25 nM ³H-thymidine): increased | stimulation of antibody formation by interleukin-2 (certain B cells): blocks | cytotoxicity and thymidine incorporation compared with S-10 cells [5]: Analogous results | threshold for CNS toxicity (mice): 240 mg/M² | CFU-C/10⁴ cells (bone marrow progenitors; DPPE 4mg/kg alone, 24h): 42.3 CFU-C/10⁴ cells | R.C.S. (bone marrow progenitors; DPPE 4mg/kg alone, 24h): 0.97 | CFU-C/10⁴ cells (bone marrow progenitors; DPPE 4mg/kg alone, 48h): 41.3 CFU-C/10⁴ cells | R.C.S. (bone marrow progenitors; DPPE 4mg/kg alone, 48h): 0.97 | increase in prostaglandin (PG)I₂ in the gut (prostaglandin (PG)I₂): 500% | Number of Mice Tumor-Free (n=12) (C-3 fibrosarcoma cells; DPPE 50mg/kg alone): 0 | effect on malignant cells in vitro (malignant cells): damages and/or kills

O=c1[nH]cc(F)c(=O)[nH]1 [5FU, 5-fluorouracil]
CFU-C/10⁴ cells (No. of bone marrow colonies) (bone marrow progenitors; 24h): 0.2 CFU-C/10⁴ cells | R.C.S. (Relative Cell Survival) (bone marrow progenitors; 24h): 0.006 | CFU-C/10⁴ cells (No. of bone marrow colonies) (bone marrow progenitors; 48h): 0.09 CFU-C/10⁴ cells | R.C.S. (Relative Cell Survival) (bone marrow progenitors; 48h): 0.002
